Measured values from US20250296971A1, “GASTRIC INHIBITORY PEPTIDE RECEPTOR LIGANDS” (priority 2021, published 2025).
Read-outs that look alike come from different tables or passages of the source. *1 amine or outer side, *2 acyl side, *3 side chain or, on linkers, in order; H or OH if unused. Where a SMILES comes first, the peptide text is derived from it. Bridges are numbered along the chain shown (N, C = ends). [ ]: non-standard residue; d: D form. The star is where a group is joined. X11 = O=C(CN1CCN2CCN3CCN(CC1)CC(=O)[O][In]([O]C(=O)C2)[O]C(=O)C3)NCCCOCCOCCOCCCN*; X3 = O=C(O)CN1CCN(CC(=O)O)CCN(CC(=O)NCCCOCCOCCOCCCN*)CCN(CC(=O)O)CC1; NH(1-deoxy-D-glucityl) = OC[C@@H](O)[C@@H](O)[C@H](O)[C@@H](O)CN*; DOTA = O=C(O)CN1CCN(CC(=O)O)CCN(CC(=O)*)CCN(CC(=O)O)CC1; Trp(5-Br) = N[C@@H](Cc1c[nH]c2ccc(Br)cc12)C(=O)O; Trp(5-Cl) = N[C@@H](Cc1c[nH]c2ccc(Cl)cc12)C(=O)O; Pyridine(2,6-diCH2) = c1cc(C[*:1])nc(C[*:2])c1; Pro(4R-NH2) = N[C@H]1CN[C@H](C(=O)O)C1; X7 = c1cc(CSCCN[*:2])cc(C[*:1])c1; Hyp = O=C(O)[C@@H]1C[C@@H](O)CN1; X1 = O=C(CN1CCC(N[*:1])CC1)[*:2]; hArg = N=C(N)NCCCC[C@H](N)C(=O)O; Suc = O=C(CCC(=O)[*:2])[*:1]; hSer = N[C@@H](CCO)C(=O)O; Api = NC1(C(=O)O)CCNCC1; Thp = NC1(C(=O)O)CCOCC1; Aib = CC(C)(N)C(=O)O

Experiments:
[1] = molecular target: T1, GIPR (CHO-K1-hGIPR cells) (Homo sapiens, UniProt P48546); experiment: FACS binding assay; settings: read-out: pIC50 Category (converted)
T1 construct: host or cells: CHO-K1
T1 sequence (P48546 22-466): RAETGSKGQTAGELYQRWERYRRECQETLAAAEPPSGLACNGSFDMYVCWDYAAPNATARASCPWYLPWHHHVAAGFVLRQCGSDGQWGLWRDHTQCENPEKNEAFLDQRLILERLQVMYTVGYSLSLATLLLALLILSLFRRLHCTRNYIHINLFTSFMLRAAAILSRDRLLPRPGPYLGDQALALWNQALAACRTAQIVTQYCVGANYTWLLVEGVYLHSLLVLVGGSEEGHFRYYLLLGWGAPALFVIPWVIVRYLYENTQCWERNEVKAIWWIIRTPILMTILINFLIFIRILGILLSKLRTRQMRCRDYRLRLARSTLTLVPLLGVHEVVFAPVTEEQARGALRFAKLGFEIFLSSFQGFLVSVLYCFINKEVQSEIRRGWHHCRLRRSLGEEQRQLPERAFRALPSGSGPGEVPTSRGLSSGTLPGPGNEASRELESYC
Method in brief: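 Median fluorescence in the APC channel, measured on washed CHO-K1 cells overexpressing human GIPR, was fitted by four-parameter logistic regression against peptide concentration to yield EC50 or IC50 values. Secondary labelling used APC-streptavidin (1 μg/mL, 30 min, ice).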

[2] = molecular target: T2, human GIP receptor (bioGIPR) (Homo sapiens, UniProt P48546); experiment: Surface plasmon resonance (SPR) based binding assay; settings: Single Cycle Kinetic mode, 25° C.; for t1/2 Category: SPR dissociation half-life; for Kd: SPR, 1:1 Langmuir binding model, read-out: pKD Category (converted)
T2 construct: Biotinylate extracellular of the human GIP receptor (bioGIPR, Proteros biostructures GmbH, lot #02/2b); purchased Proteros biostructures GmbH lot #02/2b
T2 sequence (P48546 22-138 limits assumed): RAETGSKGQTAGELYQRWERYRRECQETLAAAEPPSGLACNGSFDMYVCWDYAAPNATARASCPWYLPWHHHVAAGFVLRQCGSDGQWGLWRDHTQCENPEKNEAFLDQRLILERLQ
Method in brief: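 Binding was measured at 25 °C by single-cycle kinetics against a reference flow cell, with blank-run and drift correction, after capturing biotinylated GIPR extracellular domain to ~3500 RU. Running buffer: HBST, 0.1% DMSO. A 1:1 Langmuir model gave kinetic rates, KD, t1/2 and pKD.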

[3] = competition with 20 nM GIP-057, 4° C., 1 hour

SMILES | IC50 ([1]; competition with 20 nM GIP-057, 4° C. for 1 hour) | t1/2 Category [2] | Kd [2] | IC50 [1, 3]
CC[C@H](C)[C@@H]1NC(=O)[C@H](CC(C)C)NC(=O)C2(CCOCC2)NC(=O)[C@@H](NC(=O)[C@@H](CC(C)C)NC(=O)[C@H](CCCCNC(=N)N)NC(=O)[C@@H]2C[C@@H](O)CN2C(=O)[C@H](Cc2c[nH]c3ccc(Cl)cc23)NC(=O)[C@H](Cc2c[nH]c3ccccc23)NC(=O)[C@H](CC(=O)O)NC(C)=O)CSCc2cccc(n2)CSC[C@@H](C(N)=O)NC1=O [GIP-395, Ac-Asp-Trp-5Clw-Hyp-Har-leu-[Cys(2Lut)-Thp-Leu-Ile-Cys]-NH2] (Ac-DW[Trp(5-Cl)][Hyp][hArg][dL]C[Thp]LIC-NH2; linker 7-11 via Pyridine(2,6-diCH2)) | 10 to 79.4 nM | A (t1/2 values>15 min) | 1 to 7.94 nM | –
CC[C@H](C)[C@@H]1NC(=O)[C@H](CC(C)C)NC(=O)C(C)(C)NC(=O)[C@@H](NC(=O)[C@@H](CC(C)C)NC(=O)[C@H](CCC(=O)O)NC(=O)[C@@H]2C[C@@H](O)CN2C(=O)[C@H](Cc2c[nH]c3ccc(Cl)cc23)NC(=O)[C@H](Cc2c[nH]c3ccccc23)NC(=O)[C@H](CC(=O)O)NC(=O)CCC(=O)NCCCOCCOCCOCCCNC(=O)CN2CCN3CCN4CCN(CC2)CC(=O)[O][In]([O]C(=O)C3)[O]C(=O)C4)CSCc2cccc(c2)CSCCNC1=O [GIP-151, InDOTA-Ttds-Asp-Trp-5Clw-Hyp-Glu-leu-[Cys(3MeBn)-Aib-Leu-Ile-AET]] ({X11-Suc}-DW[Trp(5-Cl)][Hyp]E[dL]C[Aib]LI; linker 7-C via X7) | – | A (t1/2 values>15 min) | < 1 nM | < 10 nM
CC[C@H](C)[C@@H]1NC(=O)[C@H](CC(C)C)NC(=O)C(C)(C)NC(=O)[C@@H](NC(=O)[C@@H](CC(C)C)NC(=O)[C@H](CCC(=O)O)NC(=O)[C@@H]2CCCN2C(=O)[C@H](Cc2c[nH]c3ccc(Cl)cc23)NC(=O)[C@H](Cc2c[nH]c3ccccc23)NC(=O)[C@H](CC(=O)O)NC(=O)CCC(=O)NCCCOCCOCCOCCCNC(=O)CN2CCN(CC(=O)O)CCN(CC(=O)O)CCN(CC(=O)O)CC2)CSCc2cccc(c2)CSCCNC1=O [GIP-077, DOTA-Ttds-Asp-Trp-5Clw-Pro-Glu-leu-[Cys(3MeBn)-Aib-Leu-Ile-AET]] ({X3-Suc}-DW[Trp(5-Cl)]PE[dL]C[Aib]LI; linker 7-C via X7) | – | – | < 1 nM | < 10 nM
CC[C@H](C)[C@@H]1NC(=O)[C@H](CC(C)C)NC(=O)C2(CCOCC2)NC(=O)[C@@H](NC(=O)[C@@H](CC(C)C)NC(=O)[C@H](CCC(=O)O)NC(=O)[C@@H]2C[C@@H](O)CN2C(=O)[C@H](Cc2c[nH]c3ccc(Br)cc23)NC(=O)[C@H](Cc2c[nH]c3ccccc23)NC(=O)[C@H](CCO)NC(C)=O)CSCc2cccc(n2)CSC[C@@H](C(N)=O)NC1=O [GIP-197, Ac-Hse-Trp-5Brw-Hyp-Glu-leu-[Cys(2Lut)-Thp-Leu-Ile-Cys]-NH2] (Ac-[hSer]W[Trp(5-Br)][Hyp]E[dL]C[Thp]LIC-NH2; linker 7-11 via Pyridine(2,6-diCH2)) | – | A (t1/2 values>15 min) | < 1 nM | < 10 nM
CC[C@H](C)[C@@H]1NC(=O)[C@H](CC(C)C)NC(=O)C2(CCNCC2)NC(=O)[C@@H](NC(=O)[C@@H](CC(C)C)NC(=O)[C@H](CCC(=O)O)NC(=O)[C@@H]2C[C@@H](N)CN2C(=O)[C@H](Cc2c[nH]c3ccc(Cl)cc23)NC(=O)[C@H](Cc2c[nH]c3ccccc23)NC(=O)CCC(=O)O)CSCc2cccc(n2)CSC[C@@H](C(=O)NC2CCN(CC(=O)N[C@H](CCC(=O)NC[C@H](O)[C@@H](O)[C@H](O)[C@H](O)CO)C(=O)N[C@@H](CCCCNC(=O)CN3CCN(CC(=O)O)CCN(CC(=O)O)CCN(CC(=O)O)CC3)C(N)=O)CC2)NC1=O [GIP-022, HO-Succinyl-Trp-5Clw-Tap-Glu-leu-[Cys(2Lut)-Apc-Leu-Ile-Cys]-APAc-glu(AGLU)-Lys(DOTA)-NH2] (Suc-W[Trp(5-Cl)][Pro(4R-NH2)]E[dL]C[Api]LIC[X1][dE](NH(1-deoxy-D-glucityl))K(DOTA)-NH2; linker 6-10 via Pyridine(2,6-diCH2)) | – | A (t1/2 values>15 min) | < 1 nM | < 10 nM
